Earlier results as cited in patent US20180148480A1, “[…] ENHANCEMENT OF THE T-CELL ARM[…] AN ANTI-CANCER THERAPY” (THE JOHNS HOPKINS UNIVERSITY, priority 2015, published 2018).

Legend:
animals = settings: single intravenous dose; kills 100% of animals within 24 hrs

## wild-type PA
animals
  LD100: 0.1 µg
CWR22Rv1
  LD50 concentration: ≤ 50 pM
LNCaP
  LD50 concentration: ≤ 50 pM
PC3
  LD50 concentration: ≤ 50 pM
TT (thyroid)
  LD50 concentration: ≤ 50 pM
SN12C (renal)
  LD50 concentration: ≤ 50 pM
TSU (bladder)
  LD50 concentration: ≤ 50 pM
LAPC-4
  LD50 concentration: ≤ 50 pM
DU145
  LD50 concentration: ≤ 50 pM
